Measured values as given in publication PMC12040169 (PLOS Biology, 2025).

Test: in vitro
Conditions: human, hela cells, % viability

| Structure (SMILES) | viability at 28.5 h, 10 µM [%] |
| --- | --- |
| CC(=O)Nc1ccccc1OCc1cc(-c2ccccc2)on1 [CBK296617] | 99.8 |
| NC(=O)c1ccc(Nc2cc(N)ncn2)cc1 [CBK017969] | 94.1 |
| NCc1oc(-c2ccccc2)cc1C(=O)O [CBK265941C] | 89.8 |
| COc1ccc(CN2CCN(C(=O)c3cccc(N(C)C)c3)CC2)cc1 [CBK305713] | 98 |
| Cc1ccnc2c1C(=O)C1(CC2)CCN(C(=O)Nc2ccc(F)cc2F)CC1 [CBK059553T] | 91.3 |
| Cc1ccc(C(CNCc2cn(C)nc2-c2cccnc2)N(C)C)cc1 (centres unmarked) [CBK305343] | 109 |
| O=C(NC1(c2ccc(F)cc2)CCCC1)c1cnn2cccnc12 [CBK283612] | 97.4 |
| O=C(O)c1ccc(CN2C(=O)COc3ccccc32)o1 [CBK270276] | 104 |
| CSCCCNC(=O)c1ccc(-c2ccc(OC(F)(F)F)cc2)nc1 [CBK156216] | 95 |
| COCC(=O)N1CCc2sccc2C1c1ccc(NC(=O)c2cccc(F)c2)cc1 (centres unmarked) [CBK286468] | 102 |
| Cc1[nH]c2ccccc2c1C(=O)CSc1nc2ccccc2[nH]1 [CBK266494] | 63.6 |
| Oc1ccc(/C=N/Nc2nncc(-c3ccccc3)n2)c(O)c1O [CBK262492] | 80.6 |
| CC(C)(C)c1ccc(OCC(O)CSc2nnc[nH]2)cc1 (centres unmarked) [CBK261776] | 103 |
| CCCNC(=O)NC1CC(C)(C)Cc2nc(N3CCOCC3)ncc21 (centres unmarked) [CBK307232] | 85.7 |
| COc1ccc(N)cc1OCCn1ccnc(N2CCNCC2)c1=O [CBK024211C] | 98.3 |
| CC(C)(C)OC(=O)N1CCCCC1(C)c1nnc(-c2cccnc2)o1 (centres unmarked) [CBK304714] | 90.2 |
| COc1cc(CN2CCCC3(CCN(C(=O)Cc4c[nH]c5ccccc45)C3)C2)cc(OC)c1OC (centres unmarked) [CBK132027] | 99.5 |
| Fc1cccc(Nc2nc(-c3ccncc3)nc3ccccc23)c1 [CBK072732] | 89.5 |
| Cc1csc(C(Cc2ccsc2)NCc2cccnc2)n1 (centres unmarked) [CBK285020] | 96.6 |
| CCc1ocnc1C(=O)NC1CCN(c2ncccc2C#N)CC1 [CBK306935] | 93 |
| CCNC(=O)N[C@H]1[C@H](O)[C@@H](N(CC)CC)[C@@H]2OC[C@H]1O2 [CBK288816] | 113 |
| O=C(O)c1ccc(NS(=O)(=O)Cc2ccccc2)cc1 [CBK034061] | 105 |

| Structure (SMILES) | viability at 28.5 h, 10 µM [%] |
| --- | --- |
| COc1ccc(C2=NN(c3ccc([N+](=O)[O-])cc3)C(=O)/C2=C/NCc2ccccn2)cc1 [CBK265276] | 107 |
| CCOc1ccc(-c2ccnc(NCC3CCCOC3)n2)cc1C(=O)O (centres unmarked) [CBK307694] | 88.2 |
| COc1ccc(OCCN2CCC3(CC2)CN(C(=O)CO)c2ccccc23)cc1 [CBK131512] | 103 |
| Cc1ccc(Cl)cc1NC(=O)C1CC(=O)N(Cc2ccccn2)C1 (centres unmarked) [CBK305561] | 101 |
| O=C(Cn1cnc2c(cnn2-c2ccccc2)c1=O)NCc1ccco1 [CBK287531] | 101 |
| O=C(Oc1ccccc1)c1cc(Cl)cnc1Cl [CBK090320] | 101 |
| Cc1ccccc1CSc1nc2ccc([N+](=O)[O-])cc2[nH]1 [CBK267879] | 96.2 |
| O=C(COc1ccc(S(=O)(=O)N2CCCCC2)cc1)N1CCC(Cc2ccccc2)CC1 [CBK268547] | 108 |
| CCOc1cc(OCC)nc(Oc2ccc(C(=O)OC)cc2)n1 [CBK107733] | 87.2 |
| CCCCN(CC(F)(F)F)C(=O)Cc1csc(NC(=O)C(C)C)n1 [CBK306217] | 99.5 |
| Cc1ccc(-c2ncc(OC3CCN(C)CC3)nc2N)c(C)c1 [CBK145139] | 97.5 |
| O=[N+]([O-])c1ccc(Cl)cc1CN1CCN(C/C=C/c2ccccc2)CC1 [CBK261568] | 106 |
| CCCCc1c(O)nc(SCC(=O)NCC2CCCO2)[nH]c1=O (centres unmarked) [CBK073281] | 97.6 |
| Nc1ncc(-c2cccs2)nc1-c1ccc(F)c(Cl)c1 [CBK063990] | 101 |
| O=C(Nc1cccnc1)c1cc(S(=O)(=O)N2CCOCC2)ccc1Cl [CBK262099] | 84.7 |
| Oc1cc(C(F)(F)F)nc(NCc2ccncc2)n1 [CBK003563] | 85.5 |
| COc1ccc(C(c2ccccc2C)N(C)C(=O)C2CCNCC2)cn1 (centres unmarked) [CBK074124] | 100 |
| Cc1c(C(=O)Nc2cccc(S(=O)(=O)NCc3ccco3)c2)cnn1-c1ccccc1 [CBK297762] | 89.7 |
| CCc1ccc(-n2nc3ccc(NC(=S)NC(=O)c4cc5ccccc5o4)cc3n2)cc1 [CBK264258] | 101 |
| O=C(NC1CCCN(c2ncccn2)C1)c1ccc(-c2ccc(F)cc2)s1 (centres unmarked) [CBK298337] | 88.5 |
| CCC(CO)Nc1cncc(-c2cccc(/C=C/C(=O)O)c2)n1 (centres unmarked) [CBK065569] | 114 |
| O=C(Nc1ccc(O)c(-c2nc3ccccc3o2)c1)c1ccc(-c2ccc([N+](=O)[O-])cc2)o1 [CBK263439] | 96.4 |

| Structure (SMILES) | viability at 28.5 h, 10 µM [%] |
| --- | --- |
| CS(=O)(=O)Nc1ccc(N2CCNCC2)c2ccccc12 [CBK059355C] | 79.3 |
| O=S(=O)(N[C@H]1CO[C@H]2[C@@H]1OC[C@H]2O)c1ccc(Cl)cc1 [CBK289478] | 87.7 |
| C=CCNC(=O)CN1CCC(c2ccc(OC)cc2)CC1 [CBK283560] | 106 |
| CCCNc1cc(C)c(C#N)c2nc3ccccc3n12 [CBK288097] | 94 |
| CS(=O)(=O)c1ccc(CN2C(=O)CC3(CCN(Cc4ccccc4)CC3)C2=O)cc1 [CBK144065T] | 108 |
| CN1CCOC(CNCc2ccc(OCC(N)=O)cc2)C1 (centres unmarked) [CBK304830] | 102 |
| O=C(CC1CCCCC1)N1CCCC1c1n[nH]cc1-c1ccncc1 (centres unmarked) [CBK283429] | 90.4 |
| O=C1/C(=C\Nc2cccc3cccnc23)Sc2ccccc21 [CBK261647] | 93.8 |
| CCN(Cc1ccccc1)C(=O)Nc1ccccc1 [CBK012816] | 94.9 |
| Cc1cccc(C(=O)N2CCN(Cc3nc4ccccc4[nH]3)CC2)c1 [CBK304399] | 90.2 |
| COc1ccc(Cc2c(C)nc3c(C(=O)NCCSC)cnn3c2C)cc1 [CBK162191] | 111 |
| CC(C)CC(=O)N1CCc2c([nH]c3ccccc23)C12CCN(Cc1ccccc1)C2 (centres unmarked) [CBK059459] | 81.6 |
| c1ccc2oc(CN3Cc4nc[nH]c4C[C@H]3c3nc(-c4cnccn4)no3)cc2c1 [CBK288954] | 113 |
| C[C@@H](c1ccccc1)n1c(=O)[nH]c2ncc(-c3cccc4ccccc34)nc21 [CBK064710] | 97 |
| Cc1cccc(C(=O)Nc2nnc(-c3ccncc3)o2)c1 [CBK287430] | 91.5 |
| CC[C@H](Cn1nc(-c2cccs2)ccc1=O)NC(=O)C1CCC1 [CBK284295] | 103 |
| CCC(=O)c1c(CC)n[nH]c1-c1c(Cl)cccc1Cl [CBK107819] | 96.1 |
| CN1CCN(S(=O)(=O)c2ccc(Oc3ccccc3)cc2)CC1 [CBK062430] | 113 |
| O=[N+]([O-])c1cc(C(F)(F)F)ccc1NCCCNc1nc(N2CCOCC2)nc2ccccc12 [CBK266567] | 112 |
| Cc1ccc(NC(=O)CCc2cccnc2)c(C)n1 [CBK200386] | 101 |
| O=C(Nc1ccncc1)c1cc(-c2ccncc2)nc2ccccc12 [CBK287787] | 100 |
